Measured values as given in patent US20050019438A1, “Hop extracts and use thereof in the production of a medicament having estrogenic properties” (priority 2001, published 2005).

System: Ishikawa cell line (Var. I) of human endometrial adenocarcinoma
Assay: Ishikawa cell alkaline phosphatase assay of estrogenic activity
Assay type: cell-based
Source text: The in vitro assay used was developed by Littlefield in 1990 (Endocrinology 1990, 127, p. 2757-2762).
The variant of the cell line used is sensitive to estrogens, to which it responds not through a proliferative activity, but through an activity which stimulates an enzyme, alkaline phosphatase. This assay provides, in a sensitive and specific manner, information on the estrogenic activity since, among steroids, only the estrogens respond to this assay and succeed in stimulating the enzyme activity. The estrogenic activity can also be triggered by non-steroidal substances having a “estrogen-like” effect, such as phytoestrogens. The estrogenic responses obtained below are blocked by the reference anti-estrogen brought into contact, which indicates an estrogen receptor-mediated activity.
The model is an Ishikawa cell line (Var. I) of human endometrial adenocarcinoma (established by Nishida: Acta Obstet Gynaec Jap 1985, 37: 1103-1111).
Specifically, alkaline phosphatase hydrolyzes p-nitrophenol phosphate to p-nitrophenol, which gives a colored reaction.
The assay consists in measuring the absorbance at 405 nm after incubation for 72 h.
Two controls were used: • positive control=17β-estradiol, • negative control=antiestrogen ICI182, 780 from Zeneca. […]

SMILES | blocking of the estrogenic responses by the anti-estrogen (reference anti-estrogen brought into contact, indicates estrogen receptor-mediated activity) | estrogenic activity / response (in words) (alkaline phosphatase activation in Ishikawa cells, absorbance at 405 nm after 72 h)
C[C@]12CC[C@@H]3c4ccc(O)cc4C[C@@H](CCCCCCCCC[S+]([O-])CCCC(F)(F)C(F)(F)F)[C@H]3[C@@H]1CC[C@@H]2O (stereo partly drawn) [reference anti-estrogen] | blocked | 
C[C@]12CC[C@@H]3c4ccc(O)cc4CC[C@H]3[C@@H]1CC[C@@H]2O [17β-Estradiol, 17β-estradiol] |  | expected dose-effect relationship
